The source of these data is patent US10688082B2, “Aminopyrazine compounds with A2A antagonist properties” (Merck Sharp & Dohme Corp., priority 2015, dated 2020).

Molecules are shown by their SMILES.

The experiment deals with T1, human A2a receptor (Homo sapiens, UniProt P29274).
T1 construct: purchased Perkin-Elmer RBHA2AM400UA; host or cells: HEK293 cells (membranes)
T1 sequence (P29274 whole entry): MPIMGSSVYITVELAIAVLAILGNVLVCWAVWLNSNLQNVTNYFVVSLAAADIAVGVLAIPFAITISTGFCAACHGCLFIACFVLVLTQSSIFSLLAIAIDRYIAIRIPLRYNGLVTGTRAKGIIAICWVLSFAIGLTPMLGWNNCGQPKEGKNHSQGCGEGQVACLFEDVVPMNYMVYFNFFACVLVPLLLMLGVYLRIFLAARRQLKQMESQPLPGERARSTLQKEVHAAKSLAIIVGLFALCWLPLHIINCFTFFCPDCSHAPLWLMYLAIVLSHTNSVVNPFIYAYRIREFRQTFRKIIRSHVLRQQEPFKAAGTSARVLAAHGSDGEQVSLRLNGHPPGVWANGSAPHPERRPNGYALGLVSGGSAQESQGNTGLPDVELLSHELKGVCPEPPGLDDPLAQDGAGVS
Description: Competition binding assay using Scintillation Proximity technology (A2a activity). Conditions: membranes from HEK293 cells expressing the human A2a receptor; 0.5 nM tritiated ligand; Cheng-Prusoff. The method, boiled down: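 Membranes from HEK293 cells expressing human A2a, pretreated with adenosine deaminase, competed against 0.5 nM tritiated pyrazolotriazolopyrimidine ligand with WGA SPA beads, 1 h at room temperature with agitation. Compounds 3000–0.152 nM final; nonspecific binding with 1 μM CGS15943. Ki from […] via Cheng-Prusoff.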
`COc1cccc2c1nc(N)n1nc(C(=O)N3CCC4(CCN(Cc5ccccc5)C4)C3)cc21` (stereo not drawn) [Ex-90, (5-amino-7-methoxypyrazolo[1,5-c]quinazolin-2-yl)(7-benzyl-2,7-diazaspiro[4.4]nonan-2-yl)methanone] came in with a Ki of 50 nM.

Molecule `COc1cccc2c1nc(N)n1nc(C(=O)NCc3cccc4cccnc34)cc21` [Ex-91, 5-amino-7-methoxy-N-(quinolin-8-ylmethyl)pyrazolo[1,5-c]quinazoline-2-carboxamide] showed a Ki of 0.4 nM. This Ki lies about 120-fold lower than the previous one.

On to `COc1cccc2c1nc(N)n1nc(-c3nc(-c4ccccc4)no3)cc21` [Ex-92, 7-methoxy-2-(3-phenyl-1,2,4-oxadiazol-5-yl)pyrazolo[1,5-c]quinazolin-5-amine], for which the affinity, expressed as Ki, was 101 nM.

The molecule `COc1cccc2c1nc(N)n1nc(-c3nc(Cc4ccccc4)no3)cc21` [Ex-93, 2-(3-benzyl-1,2,4-oxadiazol-5-yl)-7-methoxypyrazolo[1,5-c]quinazolin-5-amine] showed a Ki of 45 nM.

Molecule `Nc1nc2ccccc2c2cc(Cc3cccc4cccnc34)nn12` [Ex-94, 2-(quinolin-8-ylmethyl)pyrazolo[1,5-c]quinazolin-5-amine] had a Ki of 10 nM.

Molecule `Nc1nc2ccccc2c2cc(Cc3ccnc4ccccc34)nn12` [Ex-95, 2-(quinolin-4-ylmethyl)pyrazolo[1,5-c]quinazolin-5-amine] yielded an inhibition constant Ki of 68 nM. Compared with the last molecule, the Ki is about 6.8-fold higher.

`Nc1nc2ccccc2c2cc(Cc3ccccc3N3CCOCC3)nn12` [Ex-96, 2-(2-morpholinobenzyl)pyrazolo[1,5c]-quinazolin-5-amine] returned a Ki of 53 nM.

`Nc1nc2ccccc2c2cc(Cc3ccccc3CN3CCOCC3)nn12` [Ex-97, 2-(2-(morpholinomethyl)-bcnzyl)pyrazolo[1,5-c]-quinazolin-5-amine] showed a Ki of 51 nM. This Ki and that of the molecule before are within 1.5-fold of each other.

Molecule `COc1cccc2c1nc(N)n1nc(-c3nnc(-c4cccc5cccnc45)o3)cc21` [Ex-100, 7-methoxy-2-(5-(quinolin-8-yl)-1,3,4-oxadiazol-2-yl)pyrazolo[1,5-c]quinazolin-5-amine] gave a Ki of 19 nM.

`COc1cccc2c1nc(N)n1nc(-c3nnc(N4CCOCC4)o3)cc21` [Ex-101, 7-methoxy-2-(5-morpholino-1,3,4-oxadiazol-2-yl)pyrazolo[1,5-c]quinazolin-5-amine] showed a Ki of 39 nM.

As to `COc1cccc2c1nc(N)n1nc(-c3nnc(N4CCN(c5ccccc5)CC4)o3)cc21` [Ex-102, 7-methoxy-2-(5-(4-phenylpiperazin-1-yl)-1,3,4-oxadiazol-2-yl)pyrazolo[1,5-c]quinazolin-5-amine], the affinity corresponds to a Ki of 33 nM.

As for `COc1cccc2c1nc(N)n1nc(-c3nnc(NCc4ccc(F)cc4F)o3)cc21` [Ex-103, 5-(5-amino-7-methoxypyrazolo[1,5-c]quinazolin-2-yl)-N-(2,4-difluorobenzyl)-1,3,4-oxadiazol-2-amine], the Ki was found to be 23 nM.

As to `Nc1nc2ccc(F)cc2c2cc(Cc3ccccc3)nn12` [Ex-104, 2-benzyl-9-fluoropyrazolo[1,5-c]quinazolin-5-amine], the Ki turned out to be 67 nM.

The molecule `Nc1nc2ccc(F)cc2c2cc(Cc3cccc4cccnc34)nn12` [Ex-105, 9-fluoro-2-(quinolin-8-ylmethyl)pyrazolo[1,5-c]quinazolin-5-amine] yielded a Ki of 45 nM.

`Nc1nc2ccc(F)cc2c2cc(Cc3ccccc3N3CCOCC3)nn12` [Ex-106, 9-fluoro-2-(2-morpholinobenzyl)pyrazolo[1,5-c]quinazolin-5-amine] had a Ki of 65 nM.

With `Nc1nc2ccc(F)cc2c2cc(Cc3cccnc3N3CCOCC3)nn12` [Ex-107, 9-fluoro-2-((2-morpholinopyridin-3-yl)methyl)pyrazolo[1,5-c]quinazolin-5-amine], the Ki came out at 123 nM.

As to `Nc1nc2c(F)cccc2c2cc(Cc3ccccc3)nn12` [Ex-108, 2-benzyl-7-fluoropyrazolo[1,5-c]quinazolin-5-amine], the Ki is 14 nM.

As to `Nc1nc2c(F)cccc2c2cc(Cc3cccc4cccnc34)nn12` [Ex-109, 7-fluoro-2-(quinolin-8-ylmethyl)pyrazolo[1,5-c]quinazolin-5-amine], the Ki is 6 nM.

Regarding `Nc1nc2c(F)cccc2c2cc(C(=O)N3CCN(c4ccccn4)CC3)nn12` [Ex-110, (5-amino-7-fluoropyrazolo[1,5-c]quinazolin-2-yl)(4-(pyridin-2-yl)piperazin-1-yl)methanone], affinity was put at a Ki of 32 nM.

For the molecule `Nc1nc2c(F)cccc2c2cc(C(=O)N3CCN(c4ccc(F)cc4F)CC3)nn12` [Ex-111, (5-amino-7-fluoropyrazolo[1,5-c]quinazolin-2-yl)(4-(2,4-difluorophenyl)piperazin-1-yl)methanone], the Ki was 94 nM.

Take `Nc1nc2c(F)cccc2c2cc(-c3nnc(-c4cccc5cccnc45)o3)nn12` [Ex-112, 7-fluoro-2-(5-(quinolin-8-yl)-1,3,4-oxadiazol-2-yl)pyrazolo[1,5-c]quinazolin-5-amine]: the Ki worked out at 131 nM.

Take `Nc1nc2c(F)cccc2c2cc(-c3nnc(Cc4ccc5cccnc5c4)o3)nn12` [Ex-113, 7-fluoro-2-(5-(quinolin-7-ylmethyl)-1,3,4-oxadiazol-2-yl)pyrazolo[1,5-c]quinazolin-5-amine]: the affinity corresponds to a Ki of 7 nM.

As for `Nc1nc2ccc(F)cc2c2cc(C(=O)N3CCN(c4ccc(F)cc4F)CC3)nn12` [Ex-114, (5-amino-9-fluoropyrazolo[1,5-c]-quinazolin-2-yl)(4-(2,4-difluorophenyl)piperazin-1-yl)methanone], affinity was put at a Ki of 8 nM.

As to `Nc1nc2ccc(F)cc2c2cc(C(=O)N3CCN(c4ccccn4)CC3)nn12` [Ex-115, (5-amino-9-fluoropyrazolo[1,5-c]-quinazolin-2-yl)(4-(pyridin-2-yl)-piperazin-1-yl)methanone], the Ki was found to be 41 nM.

What is called Ki is the dissociation constant of the complex between target and ligand, obtained from inhibition or displacement. Higher therefore signals weaker binding.
